Test results as given in ChEMBL document CHEMBL1148171, “Flavonoids from Koelreuteria henryi and other sources as protein-tyrosine kinase inhibitors” (J Nat Prod, 1993).
In brackets after ≈: the same amount, converted by molar mass.

Test: Inhibition of bovine thymus p56-LCK protein tyrosine kinase activity
Design: species or system Bos taurus

SMILES	IC50 [µg/mL]
O=c1c(O[C@H]2OC[C@@H](O)[C@@H](O)[C@@H]2O)c(-c2ccc(O)cc2)oc2cc(O)cc(O)c12	200 (≈ 478 µM)
O=c1cc(-c2ccc(O)cc2)oc2cc(O)cc(O)c12 [APIGENIN]	4 (≈ 14.8 µM)
O=c1c(O)c(-c2ccccc2O)oc2cc(O)cc(O)c12 [DATISCETIN]	60 (≈ 210 µM)
Cc1cc(O)c2c(c1)C(=O)c1cc(O)cc(O)c1C2=O [EMODIN]	10 (≈ 37 µM)
O=c1c(O)c(-c2ccccc2)oc2cc(O)cc(O)c12 [GALANGIN]	30 (≈ 111 µM)
COc1ccc(-c2oc3cc(O)cc(O)c3c(=O)c2O)cc1 [KAEMPFERIDE]	30 (≈ 99.9 µM)
C[C@H]1O[C@H](Oc2c(-c3ccc(O)cc3)oc3cc(O)cc(O)c3c2=O)[C@@H](O)[C@@H](O)[C@@H]1O [KAEMPFEROL-3-O-RHAMNOSIDE]	400 (≈ 925 µM)
O=c1c(O)c(-c2ccc(O)cc2)oc2cc(O)cc(O)c12 [KAEMPFEROL]	8 (≈ 27.9 µM)
O=c1cc(-c2ccc(O)c(O)c2)oc2cc(O)cc(O)c12 [LUTEOLIN]	4 (≈ 14 µM)
O=c1c(O)c(-c2ccc(O)cc2O)oc2cc(O)cc(O)c12 [MORIN]	50 (≈ 165 µM)
O=c1c(O)c(-c2cc(O)c(O)c(O)c2)oc2cc(O)cc(O)c12 [MYRICETIN]	10 (≈ 31.4 µM)
O=c1c(O)c(-c2ccc(O)c(O)c2)oc2cc(O)cc(O)c12 [QUERCETIN]	8 (≈ 26.5 µM)
O=c1c(O)c(-c2ccc(O)cc2)oc2cc(O)ccc12 [RESOKAEMPFEROL]	5 (≈ 18.5 µM)
